Laboratory results from patent US20120022121A1, “INDOLES, DERIVATIVES AND ANALOGS THEREOF AND USES THEREFOR” (priority 2007, published 2012).

What was measured:
LNCaP [1] = test: Cell viability SRB assay, 96 h; format: cell-based; settings: Homo sapiens
Protocol: (§1) Cell viability (LNCaP, PC-3 prostate, DU145, PPC-1, and TSU-Pr1 prostate cancer cell lines, HT-29 colon cancer cell line, and MCF-7 breast cancer cell line) was quantitated using the sulforhodamine B (SRB) assay after 96 h coincubation with different concentrations of compound in 96-well plates. Cell viability of leukemia cells (K562 and doxorubicin-resistant K562/Dox) was quantitated by MTT assay after 96 h coincubation with different concentrations of compound in 96-well plates. Drug-induced apoptosis was determined by anti-histone ELISA assay and DNA laddering. Cell cycle progression was assessed by propidium iodide staining and fluorescence-activated cell sorting (FACS) analysis. In vitro tubulin polymerization assay was determined by CytoDYNAMIX ScreenTM3 (CDS-03) kits according to the manufacturer's instructions. Anti-apoptosis protein (Bcl-2 and Bcl-xl) and pro-apoptosis protein (Bax) were examined in LNCaP and PC-3 after 24 h incubation with different concentrations of compound 13 by Western blot assay. In vivo PC-3 xenograft studies were conducted by i.v. dosing of 50 mg/kg, 100 mg/kg and 150 mg/kg for 2 weeks.
(§2) Cells were plated in 96-well plates at a density of 800-5,000 cells/well, depending on the cell line, in their required growth media containing 10% fetal bovine serum. Preliminary studies were performed with each cell line using a variety of cell densities and incubation times to determine appropriate seeding densities. The compound of interest was dissolved in DMSO, diluted in cell culture medium (final DMSO concentration was less than 0.5% v/v), and added to quadruplicate wells at final concentrations ranging from 0 to 100 μM. Control wells to which only drug-free vehicle was added were included as negative controls.
(§3) Cells were incubated for 96 hour at 37° C. in a humidified atmosphere containing 5% carbon dioxide.
(§4) Cells were stained with SRB solution. […] WinNonlin was provided by a Pharsight Academic License to The Ohio State University.

DU-145 = test: Cell viability SRB assay, 96 h; format: cell-based; settings: Homo sapiens, DU-145, 96 h
Protocol: as §1, §2, §3, §4

PC-3 [2] = test: Cell viability SRB assay, 96 h; format: cell-based; settings: Homo sapiens, PC-3, 96 h
Protocol: as §1, §2, §3, §4

PPC-1 [3] = test: Cell viability SRB assay, 96 h; format: cell-based; settings: Homo sapiens, PPC-1, 96 h
Protocol: as §1, §2, §3, §4

TSU = test: Cell viability SRB assay, 96 h; format: cell-based; settings: Homo sapiens, TSU (TSU-Pr1)
Protocol: as §1, §2, §3, §4

Du 145 = test: Cytotoxicity assay (SRB, 96 h); format: cell-based; settings: Homo sapiens; Du 145, 96 h
PPC-1 [4] = test: Cytotoxicity assay (SRB, 96 h); format: cell-based; settings: Homo sapiens, PPC-1, 96 h
LNCaP [5] = test: Cytotoxicity assay (SRB, 96 h); format: cell-based; settings: Homo sapiens
WM164 = test: Cytotoxicity assay (SRB, 48 h); format: cell-based, human; settings: Homo sapiens, WM164 melanoma
A375 = test: Cytotoxicity assay (SRB, 48 h); format: cell-based, human; settings: Homo sapiens
PC-3 [6] = test: Cytotoxicity assay (SRB, 96 h); format: cell-based; settings: Homo sapiens, PC-3, 96 h
[7] = test system: melanoma and prostate cancer cell lines; test: Cytotoxicity assay (SRB), summary over the cell lines of Table 3; format: cell-based; settings: Homo sapiens

SMILES | melting point | IC50 (LNCaP [1]) | IC50 (DU-145) | IC50 (PC-3 [2]) | IC50 (PPC-1 [3]) | IC50 (TSU) | IC50 (Du 145) | IC50 (PPC-1 [4]) | IC50 (LNCaP [5]) | IC50 (WM164; WM164, 48 h) | IC50 (A375; A-375, 48 h, A375 melanoma) | IC50 (PC-3 [6]) | IC50 (WM164) | IC50 (A375; A-375, A375 melanoma) | IC50 [7]
O=S(=O)(c1ccccc1)n1c(Cc2cccc(-c3cc4ccccc4n3S(=O)(=O)c3ccccc3)c2)cc2ccccc21 [Compound 9, (1-Benzenesulfonyl-1H-indol-2-yl)-[3-(1-benzenesulfonyl-1H-indol-2-yl)phenyl]methane] | 76 to 78 °C | > 100 µM | > 100 µM | > 100 µM | > 100 µM | > 100 µM |  |  |  |  |  |  |  |  | 
OC(c1cccc(-c2cc3ccccc3[nH]2)c1)c1cc2ccccc2[nH]1 (stereo not shown) [Compound 11, (1H-indol-2-yl)-[3-(1H-indol-2-yl)phenyl]methanol] | 82 to 85 °C | 5.6 µM | 11.6 µM | 13.5 µM | 3.8 µM |  |  |  |  |  |  |  |  |  | 
COC(=O)c1csc(C(=O)c2c[nH]c3ccccc23)n1 [Compound 59, methyl 2-(1H-indole-3-carbonyl)thiazole-4-carboxylate] |  | 58.5 ± 14.3 µM |  | 90.4 ± 27.5 µM |  |  |  |  |  |  |  |  |  |  | 
COc1cc(-c2cccc(C(O)c3cc4ccccc4n3S(=O)(=O)c3ccccc3)c2)cc(OC)c1OC (stereo not shown) [Compound 63, (1-Benzenesulfonyl-1H-indol-2-yl)-(3′,4′,5′-trimethoxy-biphenyl-3-yl)-methanol] |  | 4.2 µM | 38 µM | 11.6 µM | 21.8 µM |  |  |  |  |  |  |  |  |  | 
COc1cc(-c2cccc(C(=O)c3cc4ccccc4n3S(=O)(=O)c3ccccc3)c2)cc(OC)c1OC [Compound 64, (1-Benzenesulfonyl-1H-indol-2-yl)-(3′,4′,5′-trimethoxy-biphenyl-3-yl)-methanone] |  | 4.9 µM | 29.2 µM | 29.2 µM | 44.7 µM | 58.9 µM |  |  |  |  |  |  |  |  | 
COc1cc(-c2cccc(C(=O)c3cc4ccccc4[nH]3)c2)cc(OC)c1OC [Compound 65, (1H-Indol-2-yl)-(3′,4′,5′-trimethoxy-biphenyl-3-yl)-methanone] |  | 3 µM | 16.2 µM | 4.6 µM | 4.1 µM |  |  |  |  |  |  |  |  |  | 
COc1cc(C(O)c2cccc(-c3cc4ccccc4n3S(=O)(=O)c3ccccc3)c2)cc(OC)c1OC (stereo not shown) [Compound 66, [3-(1-Benzenesulfonyl-1H-indol-2-yl)-phenyl]-(3,4,5-trimethoxy-phenyl)-methanol] |  | 10.1 µM | 61.5 µM | 45 µM | 35.3 µM |  |  |  |  |  |  |  |  |  | 
COc1cc(C(O)c2cccc(-c3cc4ccccc4[nH]3)c2)cc(OC)c1OC (stereo not shown) [Compound 66A, [3-(1H-Indol-2-yl)-phenyl]-(3,4,5-trimethoxy-phenyl)-methanol] |  | 3.1 µM | 7.2 µM | 5.9 µM | 1.9 µM |  |  |  |  |  |  |  |  |  | 
COc1cc(C(=O)c2cccc(-c3cc4ccccc4n3S(=O)(=O)c3ccccc3)c2)cc(OC)c1OC [Compound 67, [3-(1-Benzenesulfonyl-1H-indol-2-yl)-phenyl]-(3,4,5-trimethoxy-phenyl)-methanone] |  | 7.8 µM | 18 µM | 9.2 µM | 68.5 µM |  |  |  |  |  |  |  |  |  | 
O=C(c1ccccc1)c1cccc(-c2cc3ccccc3[nH]2)c1 [Compound 80A, [3-(1H-Indol-2-yl)-phenyl]-phenyl-methanone] |  | 1.74 µM | 2.12 µM | 2 µM | 1.52 µM |  |  |  |  |  |  |  |  |  | 
COc1ccc(C(=O)c2cccc(-c3cc4ccccc4[nH]3)c2)cc1 [Compound 84, [3-(1H-Indol-2-yl)-phenyl]-(4-methoxy-phenyl)-methanone] |  | 3.7 µM | 1.4 µM | 2.6 µM | 0.9 µM |  |  |  |  |  |  |  |  |  | 
COc1cc(C(=O)c2cc3ccc(F)cc3n2S(=O)(=O)c2ccccc2)cc(OC)c1OC [Compound 106, (6-Fluoro-1-(phenylsulfonyl)-1H-indol-2-yl)(3,4,5-trimethoxyphenyl)methanone] | 171 to 173 °C |  |  |  |  |  | > 10 µM | > 10 µM | > 10 µM | > 10 µM | > 10 µM | > 10 µM |  |  | 
COc1ccc2cc(C(=O)c3cc(OC)c(OC)c(OC)c3)n(S(=O)(=O)c3ccccc3)c2c1 [Compound 107, (6-Methoxy-1-(phenylsulfonyl)-1H-indol-2-yl)(3,4,5-trimethoxyphenyl)methanone] | 156 to 158 °C |  |  |  |  |  | > 10 µM | 1.05 µM | > 10 µM |  |  | 2.66 µM | > 10 µM | 8.22 µM | 
COc1cc(C(=O)c2cc3ccc(Cl)cc3[nH]2)cc(OC)c1OC [Compound 112, (6-Chloro-1H-indol-2-yl)(3,4,5-trimethoxyphenyl)methanone] | 207 to 209 °C |  |  |  |  |  | > 10 µM | > 10 µM | > 10 µM | > 10 µM | > 10 µM | > 10 µM |  |  | > 10 µM
COc1cc(C(=O)c2cc3ccc(F)cc3[nH]2)cc(OC)c1OC [Compound 113, (6-Fluoro-1H-indol-2-yl)(3,4,5-trimethoxyphenyl)methanone] |  |  |  |  |  |  | > 10 µM | > 10 µM | > 10 µM | > 10 µM | > 10 µM | > 10 µM |  |  | > 10 µM
COc1cc(C(=O)c2cc3ccc(C)cc3[nH]2)cc(OC)c1OC [Compound 116, (6-Methyl-1H-indol-2-yl)(3,4,5-trimethoxyphenyl)methanone] | 179 to 181 °C |  |  |  |  |  | > 10 µM | > 10 µM | > 10 µM | > 10 µM | > 10 µM | > 10 µM |  |  | 
COc1cc(C(=O)c2cc3cc(F)ccc3[nH]2)cc(OC)c1OC [Compound 117, (5-Fluoro-1H-indol-2-yl)(3,4,5-trimethoxyphenyl)methanone] | 196 to 198 °C |  |  |  |  |  | 3.42 µM | 1 µM | 8.63 µM | 2.26 µM | 2.21 µM | 9.16 µM |  |  | 
COc1cc(C(=O)c2cc3ccc(Cl)cc3n2C)cc(OC)c1OC [Compound 119, (6-Chloro-1-methyl-1H-indol-2-yl)(3,4,5-trimethoxyphenyl)methanone] |  |  |  |  |  |  | > 10 µM | 4.33 ± 0.72 µM | 1.04 ± 0.25 µM |  |  | 3.76 ± 0.83 µM | 8.08 ± 1.21 µM | 6.65 ± 0.33 µM | 
COc1cc(C(=O)c2cc3ccc(Cl)cc3n2Cc2ccccc2)cc(OC)c1OC [Compound 120, (1-Benzyl-6-chloro-1H-indol-2-yl)(3,4,5-trimethoxyphenyl)methanone] |  |  |  |  |  |  | > 10 µM | > 10 µM | > 10 µM | > 10 µM | > 10 µM | > 10 µM |  |  | > 10 µM
COc1cc(C(=O)c2cc3ccc(F)cc3n2C)cc(OC)c1OC [Compound 121, (6-Fluoro-1-methyl-1H-indol-2-yl)(3,4,5-trimethoxyphenyl)methanone] |  |  |  |  |  |  | > 10 µM | 8.3 µM | 1.05 µM |  |  | > 10 µM | 7.5 µM | 5.87 µM | 1 to 10 µM
O=C(c1ccc(F)cc1)c1cccc(-c2ccc3[nH]ccc3c2)c1 [Compound 125, (4-Fluoro-phenyl)-[3-(1H-indol-5-yl)-phenyl]-methanone] |  | 2.78 µM | 5.73 µM | 2.7 µM | 0.63 µM |  |  |  |  |  |  |  |  |  | 
O=C(c1ccc(F)cc1)c1cccc(-c2cc3ccccc3n2S(=O)(=O)c2ccccc2)c1 [Compound 126, [3-(1-Benzenesulfonyl-1H-indol-2-yl)-phenyl]-(4-fluoro-phenyl)-methanone] |  | 1.56 µM | 4.01 µM | 1.5 µM | 0.55 µM |  |  |  |  |  |  |  |  |  | 
OCc1cccc(-c2cc3ccccc3[nH]2)c1 [Compound 130] |  | 23.8 ± 3 µM | 21.8 µM | 65.1 ± 5.3 µM | 26.6 µM |  |  |  |  |  |  |  |  |  | 
COc1ccc2[nH]c(C(=O)c3cc(OC)c(OC)c(OC)c3)cc2c1 [Compound 148, (5-Methoxy-1H-indol-2-yl)(3,4,5-trimethoxyphenyl)methanone] |  |  |  |  |  |  | 0.08 µM | 0.05 µM | 0.05 µM |  |  | 0.04 µM | 0.04 µM | 0.03 µM | 0.05 µM
c1ccc2[nH]ccc2c1 [indole] |  | > 100 µM | > 100 µM | > 100 µM | > 100 µM | > 100 µM |  |  |  |  |  |  |  |  | 
